Like-named read-outs stand apart in the source and are kept apart here.

What all share (type): in vivo
Test [1] has as its system Pyricularia oryzae. To be noted: rice blast, nursery box application of granule.
Test [2] relates to Rhizoctonia solani. The test can be described thus: Test Example 4: control test on paddy rice sheath blight, spraying. As to the method: A compound solution of a prescribed concentration was sprayed on three 1/5000a rice pots (cultivar: Koshihikari; 4 leaf stage). After one day from the spraying, Rhizoctonia solani cultured on a rice chaff/bran medium was inoculated on the basal of the rice plant. After 10 days from the inoculation, the extended lesion length of sheath blight of the whole stem was examined. The control value was calculated according to the following equation (3 replications).
(§1) Control Value=(1−average lesion length per a stem in the treated plot/average lesion length per a stem in the untreated plot)×100

For test [3], the system named is rice Bakanae disease. The test can be described thus: Test Example 7: control test on rice Bakanae disease, seed immersion. To be noted: seed immersion 24 hours. The method, then: 150 g of dry rice seeds of naturally infected with rice Bakanae disease (cultivar: Nihonbare) was immersed in a compound solution which was diluted with water to have a prescribed concentration at a volume ratio of 1:1 for 24 hours (liquid temperature; 20 degree centigrade) and air-dried. Subsequently, the seeds were soaked in water at 15 degree centigrade for 4 days and subjected to a sprouting in water at 30 degree centigrade for 24 hours, and then sowed in a nursery box. After the sowing, the seeds were incubated at 30 degree centigrade for 2 days and grown in a greenhouse. After 21 days from the sowing, the number of seedlings showing symptoms of Bankanae disease for 300 seedlings per each chemical was examined. The control value was calculated according to the following equation.
Control Value=(1−number of infected seedlings in the treated plot/number of infected seedlings in the untreated plot)×100

Test [4] concerns Pyricularia oryzae.
Test [5] has as its system Pyricularia oryzae. The test can be described thus: whole plant or invertebrate.
Test [6] has as its system Pyricularia oryzae. The source holds these as a separate data set.
Test [7] deals with Rhizoctonia solani. The test is described as follows: Test Example 5: control test on paddy rice sheath blight, submerged application. Conditions: submerged application of granule. The method, then:
After 14 days from the treatment, Rhizoctonia solani cultured on a rice chaff/bran medium was inoculated on the basal of the rice plant. After 10 days from the inoculation, the extended lesion length of sheath blight of the whole stem was examined. The control value was calculated according to the following equation (3 replications).
as §1

The subject of test [8] is Rhizoctonia solani. The test can be described thus: Test Example 6: control test on paddy rice sheath blight, nursery box application. Conditions: nursery box application of granule. The method, then:
After 30 days from the treatment, Rhizoctonia solani cultured on a rice chaff/bran medium was inoculated on the basal of the rice plant. After 10 days from the inoculation, the extended lesion length of sheath blight of the whole stem was examined. The control value was calculated according to the following equation (3 replications).
as §1

[9] abbreviates: Pyricularia oryzae, 168 h, read-out: Control value.

Consider `CSC(=O)c1cccc2nnsc12` [Acibenzolar-S-methyl], for which the Control value in test [1] (1 gai/box) was found to be 96.

Compound `CO/C=C(/C(=O)OC)c1ccccc1Oc1cc(Oc2ccccc2C#N)ncn1` [Azoxystrobin, reference compound] came in with a Control value in test [2] (80 ppm) of 93.

As for `CCCCNC(=O)n1c(NC(=O)OC)nc2ccccc21` [Benomyl, reference compound], the Control value in test [3] (1000 ppm) was 98.

As to `Cc1ccc(C(=O)NC(CNC(=O)OCC(F)(F)F)C(C)C)cc1` (stereo not shown) [Compound 6, N-(2,2,2-trifluoroethyloxycarbonyl)-N′-(4-methylbenzoyl)-3-methyl-1,2-butanediamine], in test [4] (rice blast, sprayed at 60 ppm active ingredient, lesions after 7 days), the “Effect (class of control value)” value is “A (Not less than 80%)”. In test [5] (setting [9]), the pest or weed control at 60 ppm came out at 97%. Further, the Control value in test [6] (rice blast, submerged application of granule, 225 gai/10a) is 95; in test [1] (7.5 gai/box) it was 96; in test [2] (60 ppm) it was 3; in test [7] (225 gai/10a) it was 5; in test [8] (7.5 gai/box), 4.

In the case of `Cc1ccc(C(=O)NCC(NC(=O)OCC(F)(F)F)C(C)(C)C)cc1` (stereo not shown) [Compound 24], the “Effect (class of control value)” value in test [4] (in vivo) is “A (key: A: Not less than 80%; B: Not less than 50% to less than 80%; C: Less than 50%)”. Further, the Control value in test [5] (60 ppm) came out at 97; in test [2] (60 ppm), 2; in test [7] (225 gai/10a), 4; in test [8] (7.5 gai/box), 4.

For `CCC(C)C(CNC(=O)c1ccc(C)cc1)NC(=O)OCC(F)(F)F` (stereo not shown) [Compound 25], the “Effect (class of control value)” value in test [4] (in vivo) is listed as “A (key: A: Not less than 80%; B: Not less than 50% to less than 80%; C: Less than 50%)”. Moreover, the Control value was 95 in test [6] (in vivo) and 5 in test [7] (225 gai/10a).

In the case of `Cc1ccc(C(=O)NCC(NC(=O)OC(C)C(F)(F)F)C(C)C)cc1` (stereo not shown) [Compound 30], the “Effect (class of control value)” value in test [4] (in vivo) is “A (key: A: Not less than 80%; B: Not less than 50% to less than 80%; C: Less than 50%)”. Also, the Control value in test [6] (in vivo) is 97; in test [7] (225 gai/10a) it was 7.

As to `CC(C)(C)C(CNC(=O)c1cc2ccccc2o1)NC(=O)OCC(F)(F)F` (stereo not shown) [Compound 31], the “Effect (class of control value)” value in test [4] (in vivo) is listed as “A (key: A: Not less than 80%; B: Not less than 50% to less than 80%; C: Less than 50%)”. In addition, the Control value in test [5] (60 ppm) is on record as 96; in test [2] (60 ppm) it was 4; in test [7] (225 gai/10a), 4; in test [8] (7.5 gai/box), 2.

`CCC(C)C(CNC(=O)c1cc2ccccc2o1)NC(=O)OCC(F)(F)F` (stereo not shown) [Compound 32]: the “Effect (class of control value)” value in test [4] (in vivo) was “A (key: A: Not less than 80%; B: Not less than 50% to less than 80%; C: Less than 50%)”. Besides, the Control value is recorded as 95 in test [5] (60 ppm), 5 in test [2] (60 ppm) and 12 in test [3] (60 ppm).

Regarding `CCC(C)C(CNC(=O)c1nc2ccccc2s1)NC(=O)OCC(F)(F)F` (stereo not shown) [Compound 33], in test [4] (in vivo), the “Effect (class of control value)” value is “A (key: A: Not less than 80%; B: Not less than 50% to less than 80%; C: Less than 50%)”. In addition, the Control value in test [5] (60 ppm) worked out at 96; in test [2] (60 ppm) it was 6; in test [3] (60 ppm), 8.

Turning to `CC(C)C(CNC(=O)c1nc2ccc(F)cc2s1)NC(=O)OCC(F)(F)F` (stereo not shown) [Compound 37], the “Effect (class of control value)” value in test [4] (in vivo) is reported as “A (key: A: Not less than 80%; B: Not less than 50% to less than 80%; C: Less than 50%)”. Further, the Control value in test [5] (60 ppm) was found to be 98; in test [2] (60 ppm) it was 3.

`CC(C)C(CNC(=O)c1nc2ccccc2s1)NC(=O)OCC(F)(F)F` (stereo not shown) [Compound 38]: the “Effect (class of control value)” value in test [4] (in vivo) is listed as “A (key: A: Not less than 80%; B: Not less than 50% to less than 80%; C: Less than 50%)”. The values for the Control value in test [5] (60 ppm) and in test [2] (60 ppm) were 96 and 3, respectively.

In the case of `CC(CNC(=O)c1cc2ccccc2o1)NC(=O)OCC(F)(F)F` (stereo not shown) [Compound 40], the “Effect (class of control value)” value in test [4] (in vivo) is “A (key: A: Not less than 80%; B: Not less than 50% to less than 80%; C: Less than 50%)”. Moreover, the Control value amounted to 97 in test [5] (60 ppm) and 4 in test [2] (60 ppm).

`N#Cc1ccccc1NC(=O)c1snc(Cl)c1Cl` [Compound 104]: the Control value in test [1] (1.5 gai/box) was 98.

The compound `C[C@@H](NC(=O)C(C#N)C(C)(C)C)c1ccc(Cl)cc1Cl` (stereo partly shown) [Diclocymet] came in with a Control value in test [1] (1.5 gai/box) of 97.

As for `Cc1c(Cl)cc(-c2ccc(=O)[nH]n2)cc1Cl` [Diclomezine, reference compound], the Control value in test [2] (20 ppm) is 95.

Regarding `C/C(=N/Nc1nc(C)cc(C)n1)c1ccccc1C` [Ferimzone, reference compound], in test [5] (setting [9]), the pest or weed control at 300 ppm turned out to be 98%.

As to `N#Cc1c[nH]cc1-c1cccc2c1OC(F)(F)O2` [Fludioxonil, reference compound], in test [3] (250 ppm), the Control value is recorded as 99.

On to `CC(C)Oc1cccc(NC(=O)c2ccccc2C(F)(F)F)c1` [Flutolanil, reference compound], for which the Control value in test [2] (250 ppm) amounted to 94; in test [7] (210 gai/10a), 96.

As to `O=C1OCc2c(Cl)c(Cl)c(Cl)c(Cl)c21` [Fthalide, reference compound], the pest or weed control at 300 ppm in test [5] (setting [9]) was 97%.

For the compound `Cc1nn(C)c(Cl)c1C(=O)Nc1cccc2c1C(C)OC2(C)C` (stereo not shown) [Furametpyr, reference compound], the figures for the Control value in test [2] (100 ppm), in test [7] (45 gai/10a) and in test [8] (2 gai/box) were 95, 96 and 96, respectively.

For the compound `CC(C)OC(=O)C(C(=O)OC(C)C)=C1SCCS1` [Isoprothiolane, reference compound], in test [5] (setting [9]), the pest or weed control at 400 ppm was 98%.

`C[C@H]1O[C@H](O[C@H]2[C@H](O)[C@@H](O)[C@@H](O)[C@H](O)[C@@H]2O)[C@@H](N)C[C@@H]1NC(=N)C(=O)O` [Kasugamycin, reference compound]: in test [5] (rice blast, spraying, 20 ppm), the Control value turned out to be 97.

In test [2] (750 ppm), `Cc1ccccc1C(=O)Nc1cccc(OC(C)C)c1` [Mepronil, reference compound] came in with a Control value of 94.

Turning to `CNC(=O)/C(=N/OC)c1ccccc1Oc1ccccc1` [Metominostrobin, reference compound], the Control value is given as 98 in test [6] (rice blast, submerged application of granule, 150 gai/10a) and 95 in test [7] (150 gai/10a).

For the compound `CNC(=O)/C(=N/OC)c1ccccc1CO/N=C(C)/C(=N/OC)C(/C)=N/OC` [Oryzastrobin, reference compound], the Control value in test [6] (rice blast, submerged application of granule, 100 gai/10a) stood at 99; in test [7] (100 gai/10a) it was 95; in test [8] (3.5 gai/box) it was 94.

As for `O=C(Nc1ccccc1)N(Cc1ccc(Cl)cc1)C1CCCC1` [Pencycuron, reference compound], the Control value in test [2] (167 ppm) came to 95.

In the case of `C=CCOC1=NS(=O)(=O)c2ccccc21` [Probenazole], the Control value in test [1] (12 gai/box) is on record as 98.

In the case of `Cc1nc(C(F)(F)F)c(C(=O)Nc2c(Br)cc(OC(F)(F)F)cc2Br)s1` [Thifluzamide, reference compound], the Control value in test [7] (60 gai/10a) and in test [8] (1 gai/box) was 95 in each case.

In turn, `Cc1ccc(NC(=O)c2snnc2C)cc1Cl` [Tiadinil] came in with a Control value in test [1] (6 gai/box) of 95.

With `Cc1cccc2sc3nncn3c12` [Tricyclazole, reference compound], the pest or weed control at 200 ppm in test [5] (setting [9]) turned out to be 99%. The Control value in test [1] (2 gai/box) was 96.

For `OCC1=C[C@H](N[C@H]2C[C@H](CO)[C@@H](O[C@@H]3O[C@H](CO)[C@@H](O)[C@H](O)[C@H]3O)[C@H](O)[C@H]2O)[C@H](O)[C@@H](O)[C@@H]1O` [Validamycin, reference compound], the Control value in test [2] (60 ppm) turned out to be 94.
